In patent US20110039763A1, “TARGETED ANTIMICROBIAL MOIETIES” (C3 JIAN, INC., priority 2009, published 2011):
“Also recorded” adds a separate entry of the source. Ends that are not written are not given here.

How the values were obtained:
[1] = test system: microorganisms; test: Targeting peptide binding to target microorganisms (Tables 3, 10, 12); conditions: microorganism(s) the targeting peptide binds; binding in aqueous buffers varied with peptide solubility, preferably 1x PBS
[2] = test system: microorganisms; test: Morphology, biofilm and growth disrupting peptides (Table 5); assay type: cell-based; parameters: key: A: Peptide aggregates; B: Less hyphal formation; Clumps; Diffuse clumps and small polyps; F: Diffuse growth; H: Thin; I: Growth inhibition; Microcolony formation; Rippled; Small polyps; Thick; W: Halo formation on top, microlonies on bottom
Description: In certain embodiments peptides that induce alterations in phenotype or other biological activities can also be used as antimicrobial effector moieties.

[3] = test system: microorganisms; test: Peptide activities: targeting/binding, antimicrobial, growth or phenotype altering (Tables 7, 8); assay type: cell-based; conditions: peptides having multiple activities

PF-453: peptide having multiple activities (IIQDIAHAFGY; Peptide with targeting and/or antimicrobial activity)
Target(s) [1]: M. luteus; also recorded: E. coli; also recorded: P. aeruginosa; also recorded: S. pneumoniae; also recorded: E. faecalis; also recorded: C. jeikeium; also recorded: C. jejuni
Organism, effect ([2]; E. coli): E. coli (C)
Organism, effect ([2]; MRSA): MRSA (C)
Organism, effect ([2]; S. epidermidis): S. epidermidis (C)
Organism, effect ([2]; S. pneumoniae): S. pneumoniae (C)
Activities [3]: G B

PF-456: peptide having multiple activities (TCVKPRTIN; Peptide with targeting and/or antimicrobial activity)
Target(s) [1]: C. albicans and MRSA and E. faecalis and C. jeikeium and C. jejuni
Organism, effect ([2]; C. jejuni): C. jejuni (A)
Organism, effect ([2]; E. faecalis): E. faecalis (A)
Activities [3]: G B

PF-457: peptide having multiple activities (INKYHHIA; Peptide with targeting and/or antimicrobial activity)
Target(s) [1]: C. albicans; also recorded: S. pneumoniae; also recorded: E. faecalis; also recorded: C. jeikeium
Organism, effect ([2]; S. pneumoniae): S. pneumoniae (M)
Activities [3]: G B

PF-459: peptide having multiple activities (EKRMSFNENQSHRPLL; Peptide with targeting and/or antimicrobial activity)
Target(s) [1]: P. aeruginosa
Organism, effect ([2]; S. pneumoniae): S. pneumoniae (H)
Activities [3]: G B

PF-462: peptide having multiple activities (KNKTDTL; Peptide with targeting and/or antimicrobial activity)
Target(s) [1]: E. faecalis; also recorded: C. jeikeium
Organism, effect ([2]; S. pneumoniae): S. pneumoniae (H)
Activities [3]: G B

PF-464: peptide having multiple activities (VDMVNRFLGN; Peptide with targeting and/or antimicrobial activity)
Target(s) [1]: S. epidermidis and C. albicans and MRSA and S. pneumoniae and E. faecalis and C. jeikeium and C. jejuni
Organism, effect ([2]; S. pneumoniae): S. pneumoniae (S)
Activities [3]: G B

PF-466: peptide having multiple activities (VRKSDQ; Peptide with targeting and/or antimicrobial activity)
Target(s) [1]: MRSA and C. jeikeium and C. jejuni
Organism, effect ([2]; S. pneumoniae): S. pneumoniae (H)
Activities [3]: G B

PF-467: peptide having multiple activities (YYKDYFKEI; Peptide with targeting and/or antimicrobial activity)
Target(s) [1]: MRSA and E. faecalis and C. jeikeium and C. jejuni
Organism, effect ([2]; S. pneumoniae): S. pneumoniae (H)
Activities [3]: G B

PF-470: peptide having multiple activities (PYSDSYATRPHWEQHRAR; Peptide with targeting and/or antimicrobial activity)
Target(s) [1]: M. luteus and E. coli and MRSA and E. faecalis and C. jeikeium and C. jejuni
Organism, effect ([2]; C. jejuni): C. jejuni (A)
Organism, effect ([2]; E. faecalis): E. faecalis (A)
Activities [3]: G B

PF-476: peptide having multiple activities (WADAQYKLCENCSE; Peptide with targeting and/or antimicrobial activity)
Target(s) [1]: M. luteus; also recorded: P. mirabilis; also recorded: C. albicans; also recorded: S. pneumoniae; also recorded: E. faecalis; also recorded: C. jeikeium; also recorded: C. jejuni
Organism, effect ([2]; S. pneumoniae): S. pneumoniae (H)
Activities [3]: G B

PF-484: peptide having multiple activities (HKKDIRKQVFKN; Peptide with targeting and/or antimicrobial activity)
Target(s) [1]: S. epidermidis; also recorded: M. luteus; also recorded: P. mirabilis; also recorded: E. coli; also recorded: E. faecalis; also recorded: C. jeikeium; also recorded: C. jejuni
Organism, effect ([2]; E. faecalis): E. faecalis (A)
Activities [3]: G B

PF-513: peptide having multiple activities (SNGVGLGVGIGSGIRF-NH2)
Target(s) [1]: C. albicans
Organism, effect ([2]; S. pneumoniae): S. pneumoniae (M)
Activities [3]: G B

PF-514: peptide having multiple activities (QRFYKLFYHIDLTNEQALKLFQVK; Peptide with targeting and/or antimicrobial activity)
Target(s) [1]: S. epidermidis and E. coli and P. aeruginosa and C. albicans and MRSA and S. pneumoniae and E. faecalis and C. jeikeium
Organism, effect ([2]; E. coli): E. coli (R)
Organism, effect ([2]; E. faecalis): E. faecalis (C)
Organism, effect ([2]; S. epidermidis): S. epidermidis (C)
Organism, effect ([2]; S. pneumoniae): S. pneumoniae (M)
Activities [3]: G B

PF-515: peptide having multiple activities (DKSTQDKDIKQAKLLAQELGL-NH2)
Target(s) [1]: S. epidermidis; also recorded: C. albicans; also recorded: S. pneumoniae; also recorded: C. jeikeium
Organism, effect ([2]; S. pneumoniae): S. pneumoniae (H)
Activities [3]: G B

PF-517: peptide having multiple activities (VKPTMTASLISTVC; Peptide with targeting and/or antimicrobial activity)
Target(s) [1]: C. jejuni
Organism, effect ([2]; S. pneumoniae): S. pneumoniae (M)
Activities [3]: G B

PF-518: peptide having multiple activities (SFYSKYSRYIDNLAGAIFLFF; Peptide with targeting and/or antimicrobial activity)
Target(s) [1]: S. epidermidis and E. coli and P. aeruginosa and C. albicans and MRSA and S. pneumoniae and E. faecalis
Organism, effect ([2]; E. coli): E. coli (R)
Organism, effect ([2]; E. faecalis): E. faecalis (C)
Organism, effect ([2]; MRSA): MRSA (C)
Organism, effect ([2]; S. epidermidis): S. epidermidis (C)
Organism, effect ([2]; S. pneumoniae): S. pneumoniae (M)
Activities [3]: G B

PF-519: peptide having multiple activities (YLVYSGVLATAAAF-NH2)
Target(s) [1]: M. luteus; also recorded: E. faecalis; also recorded: C. jeikeium
Organism, effect ([2]; E. coli): E. coli (R)
Organism, effect ([2]; E. faecalis): E. faecalis (C)
Organism, effect ([2]; MRSA): MRSA (C)
Organism, effect ([2]; S. pneumoniae): S. pneumoniae (S)
Activities [3]: G B

PF-528: peptide having multiple activities (LVDVVVLIRRHLPKSCS-NH2)
Target(s) [1]: S. epidermidis and P. aeruginosa and C. albicans and MRSA and S. pneumoniae and E. faecalis
Organism, effect ([2]; C. albicans): C. albicans (C)
Organism, effect ([2]; E. coli): E. coli (H)
Organism, effect ([2]; MRSA): MRSA (H)
Organism, effect ([2]; S. epidermidis): S. epidermidis (H)
Organism, effect ([2]; S. pneumoniae): S. pneumoniae (R)
Activities [3]: G B

PF-540: peptide having multiple activities (KSILILIKVIFIGQTTIIL; Peptide with targeting and/or antimicrobial activity)
Target(s) [1]: C. albicans
Organism, effect ([2]; E. coli): E. coli (R)
Organism, effect ([2]; MRSA): MRSA (H)
Organism, effect ([2]; S. epidermidis): S. epidermidis (H)
Organism, effect ([2]; S. pneumoniae): S. pneumoniae (R)
Activities [3]: G B

PF-542: peptide having multiple activities (KKDNPSLNDQDKNAVLNLLALAK; Peptide with targeting and/or antimicrobial activity)
Target(s) [1]: C. jeikeium
Organism, effect ([2]; S. pneumoniae): S. pneumoniae (H)
Activities [3]: G B

PF-546: peptide having multiple activities (PIIAPTIKTQIQ; Peptide with targeting and/or antimicrobial activity)
Target(s) [1]: S. epidermidis; also recorded: E. coli; also recorded: C. albicans; also recorded: S. pneumoniae; also recorded: E. faecalis; also recorded: C. jeikeium
Organism, effect ([2]; C. jeikeium): C. jeikeium (D)
Organism, effect ([2]; E. coli): E. coli (R)
Organism, effect ([2]; E. faecalis): E. faecalis (D)
Organism, effect ([2]; MRSA): MRSA (D)
Organism, effect ([2]; S. epidermidis): S. epidermidis (D)
Organism, effect ([2]; S. pneumoniae): S. pneumoniae (D)
Activities [3]: G B

PF-549: peptide having multiple activities (TGIGPIARPIEHGLDS; Peptide with targeting and/or antimicrobial activity)
Target(s) [1]: E. coli; also recorded: C. albicans; also recorded: S. pneumoniae; also recorded: C. jeikeium
Organism, effect ([2]; B. subtilis): B. subtilis (D)
Organism, effect ([2]; MRSA): MRSA (C)
Activities [3]: G B
